Assay results taken from ChEMBL document CHEMBL1201862, “PubChem BioAssay data set” (2004).
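How tested: cells in 96-well plates exposed to compound for 48 hours at five concentrations. GI50 = concentration required for 50% inhibition of growth.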 The source made the active and inactive calls. Cut-off read from the data, not from the text of the source: active = GI50 up to about 1.1 µM and inactive = higher.

How the values were obtained:
Experiment in all cases: inhibition of tumour cell growth, NCI panel, 48 h
OVCAR-5 = test system: OVCAR-5
SNB-19 = test system: SNB-19
SK-MEL-2 = test system: SK-MEL-2
UACC-257 = test system: UACC-257
HCT-15 = test system: HCT-15
IGROV-1 = test system: IGROV-1
SK-MEL-28 = test system: SK-MEL-28
NCI-H522 = test system: NCI-H522
HCT-116 = test system: HCT-116
PC-3 = test system: PC-3
786-0 = test system: 786-0
HCC 2998 = test system: HCC 2998
LOX IMVI = test system: LOX IMVI
A498 = test system: A498
NCI-H460 = test system: NCI-H460
NCI-H226 = test system: NCI-H226
UO-31 = test system: UO-31
SF-268 = test system: SF-268
NCI/ADR-RES = test system: NCI/ADR-RES
KM12 = test system: KM12
MDA-MB-231 = test system: MDA-MB-231
A549 = test system: A549
TK-10 = test system: TK-10
RXF 393 = test system: RXF 393
EKVX = test system: EKVX
COLO 205 = test system: COLO 205
SNB-75 = test system: SNB-75
SW-620 = test system: SW-620
NCI-H23 = test system: NCI-H23
OVCAR-4 = test system: OVCAR-4
T47D = test system: T47D
MCF7 = test system: MCF7
SK-OV-3 = test system: SK-OV-3
MDA-MB-435 = test system: MDA-MB-435
HOP-62 = test system: HOP-62
SK-MEL-5 = test system: SK-MEL-5
MDA-N = test system: MDA-N
SN12C = test system: SN12C
ACHN = test system: ACHN
Malme-3M = test system: Malme-3M
HOP-92 = test system: HOP-92
OVCAR-3 = test system: OVCAR-3
OVCAR-8 = test system: OVCAR-8
BT-549 = test system: BT-549
CCRF-CEM = test system: CCRF-CEM
M14 = test system: M14
SF-295 = test system: SF-295
HT-29 = test system: HT-29
U-251 = test system: U-251
DU-145 = test system: DU-145
CAKI-1 = test system: CAKI-1
K562 = test system: K562
HL-60 = test system: HL-60
MOLT-4 = test system: MOLT-4
SR = test system: SR
SF-539 = test system: SF-539
UACC-62 = test system: UACC-62
RPMI-8226 = test system: RPMI-8226

## C=C(C)[C@@]1(O)CCC[C@H]1NC(=O)OC(C)(C)C
OVCAR-5
  GI50: > 100 µM (inactive)
SNB-19
  GI50: > 100 µM (inactive)
SK-MEL-2
  GI50: > 100 µM (inactive)
UACC-257
  GI50: > 100 µM (inactive)
HCT-15
  GI50: > 100 µM
IGROV-1
  GI50: > 100 µM (inactive)
SK-MEL-28
  GI50: > 100 µM (inactive)
NCI-H522
  GI50: > 100 µM (inactive)
HCT-116
  GI50: > 100 µM (inactive)
PC-3
  GI50: > 100 µM (inactive)
786-0
  GI50: > 100 µM (inactive)
HCC 2998
  GI50: > 100 µM (inactive)
LOX IMVI
  GI50: > 100 µM (inactive)
A498
  GI50: > 100 µM (inactive)
NCI-H460
  GI50: > 100 µM (inactive)
NCI-H226
  GI50: > 100 µM (inactive)
UO-31
  GI50: > 100 µM (inactive)
SF-268
  GI50: > 100 µM (inactive)
NCI/ADR-RES
  GI50: > 100 µM (inactive)
KM12
  GI50: > 100 µM (inactive)
MDA-MB-231
  GI50: > 100 µM (inactive)
A549
  GI50: > 100 µM (inactive)
TK-10
  GI50: > 100 µM (inactive)
RXF 393
  GI50: > 100 µM (inactive)
EKVX
  GI50: > 100 µM (inactive)
COLO 205
  GI50: > 100 µM (inactive)
SNB-75
  GI50: > 100 µM (inactive)
SW-620
  GI50: > 100 µM (inactive)
NCI-H23
  GI50: > 100 µM (inactive)
OVCAR-4
  GI50: > 100 µM (inactive)
T47D
  GI50: > 100 µM (inactive)
MCF7
  GI50: > 100 µM (inactive)
SK-OV-3
  GI50: > 100 µM (inactive)
MDA-MB-435
  GI50: > 100 µM (inactive)
HOP-62
  GI50: > 100 µM (inactive)
SK-MEL-5
  GI50: > 100 µM (inactive)
MDA-N
  GI50: > 100 µM (inactive)
SN12C
  GI50: > 100 µM (inactive)
ACHN
  GI50: > 100 µM (inactive)
Malme-3M
  GI50: > 100 µM (inactive)
HOP-92
  GI50: > 100 µM (inactive)
OVCAR-3
  GI50: > 100 µM (inactive)
OVCAR-8
  GI50: > 100 µM (inactive)
BT-549
  GI50: > 100 µM (inactive)
CCRF-CEM
  GI50: 84.9 µM (inactive)
M14
  GI50: > 100 µM (inactive)
SF-295
  GI50: > 100 µM (inactive)
HT-29
  GI50: > 100 µM (inactive)
U-251
  GI50: > 100 µM (inactive)
DU-145
  GI50: > 100 µM (inactive)
CAKI-1
  GI50: > 100 µM (inactive)

## C1CSCC2(COC2)CSCCSCC2(COC2)CS1
OVCAR-5
  GI50: > 100 µM (inactive)
SNB-19
  GI50: > 100 µM (inactive)
UACC-257
  GI50: > 100 µM (inactive)
HCT-15
  GI50: > 100 µM
IGROV-1
  GI50: > 100 µM (inactive)
SK-MEL-28
  GI50: > 100 µM (inactive)
NCI-H522
  GI50: > 100 µM (inactive)
HCT-116
  GI50: > 100 µM (inactive)
PC-3
  GI50: > 100 µM (inactive)
786-0
  GI50: > 100 µM (inactive)
HCC 2998
  GI50: > 100 µM (inactive)
LOX IMVI
  GI50: > 100 µM (inactive)
K562
  GI50: > 100 µM (inactive)
NCI-H460
  GI50: > 100 µM (inactive)
HL-60
  GI50: > 100 µM (inactive)
UO-31
  GI50: > 100 µM (inactive)
SF-268
  GI50: > 100 µM (inactive)
NCI/ADR-RES
  GI50: > 100 µM (inactive)
KM12
  GI50: > 100 µM (inactive)
MDA-MB-231
  GI50: > 100 µM (inactive)
A549
  GI50: > 100 µM (inactive)
MOLT-4
  GI50: > 100 µM (inactive)
TK-10
  GI50: > 100 µM (inactive)
EKVX
  GI50: > 100 µM (inactive)
COLO 205
  GI50: > 100 µM (inactive)
SNB-75
  GI50: 35.6 µM (inactive)
SW-620
  GI50: > 100 µM (inactive)
NCI-H23
  GI50: > 100 µM (inactive)
OVCAR-4
  GI50: > 100 µM (inactive)
T47D
  GI50: > 100 µM (inactive)
SR
  GI50: > 100 µM (inactive)
MCF7
  GI50: > 100 µM (inactive)
SK-OV-3
  GI50: > 100 µM (inactive)
MDA-MB-435
  GI50: > 100 µM (inactive)
HOP-62
  GI50: > 100 µM (inactive)
SK-MEL-5
  GI50: > 100 µM (inactive)
MDA-N
  GI50: > 100 µM (inactive)
SN12C
  GI50: > 100 µM (inactive)
SF-539
  GI50: > 100 µM (inactive)
HOP-92
  GI50: > 100 µM (inactive)
OVCAR-3
  GI50: > 100 µM (inactive)
OVCAR-8
  GI50: > 100 µM (inactive)
BT-549
  GI50: > 100 µM (inactive)
CCRF-CEM
  GI50: > 100 µM (inactive)
M14
  GI50: > 100 µM (inactive)
SF-295
  GI50: > 100 µM (inactive)
HT-29
  GI50: > 100 µM (inactive)
U-251
  GI50: > 100 µM (inactive)
DU-145
  GI50: > 100 µM (inactive)
UACC-62
  GI50: > 100 µM (inactive)

## O=C1NC(=S)NC(=O)C1C(c1ccc(O)cc1)C1C(=O)NC(=S)NC1=O.c1ccncc1
OVCAR-5
  GI50: > 100 µM (inactive)
SNB-19
  GI50: > 100 µM (inactive)
SK-MEL-2
  GI50: > 100 µM (inactive)
UACC-257
  GI50: > 100 µM (inactive)
HCT-15
  GI50: > 100 µM
IGROV-1
  GI50: > 100 µM (inactive)
SK-MEL-28
  GI50: > 100 µM (inactive)
NCI-H522
  GI50: > 100 µM (inactive)
HCT-116
  GI50: > 100 µM (inactive)
PC-3
  GI50: > 100 µM (inactive)
786-0
  GI50: > 100 µM (inactive)
LOX IMVI
  GI50: > 100 µM (inactive)
K562
  GI50: > 100 µM (inactive)
A498
  GI50: > 100 µM (inactive)
NCI-H460
  GI50: > 100 µM (inactive)
HL-60
  GI50: > 100 µM (inactive)
RPMI-8226
  GI50: > 100 µM (inactive)
NCI-H226
  GI50: > 100 µM (inactive)
UO-31
  GI50: > 100 µM (inactive)
NCI/ADR-RES
  GI50: > 100 µM (inactive)
KM12
  GI50: > 100 µM (inactive)
MDA-MB-231
  GI50: > 100 µM (inactive)
A549
  GI50: > 100 µM (inactive)
MOLT-4
  GI50: > 100 µM (inactive)
TK-10
  GI50: > 100 µM (inactive)
RXF 393
  GI50: > 100 µM (inactive)
COLO 205
  GI50: > 100 µM (inactive)
SW-620
  GI50: > 100 µM (inactive)
NCI-H23
  GI50: > 100 µM (inactive)
OVCAR-4
  GI50: > 100 µM (inactive)
T47D
  GI50: > 100 µM (inactive)
MCF7
  GI50: > 100 µM (inactive)
MDA-MB-435
  GI50: > 100 µM (inactive)
HOP-62
  GI50: > 100 µM (inactive)
SK-MEL-5
  GI50: > 100 µM (inactive)
MDA-N
  GI50: > 100 µM (inactive)
SN12C
  GI50: > 100 µM (inactive)
ACHN
  GI50: > 100 µM (inactive)
Malme-3M
  GI50: > 100 µM (inactive)
HOP-92
  GI50: > 100 µM (inactive)
OVCAR-3
  GI50: > 100 µM (inactive)
OVCAR-8
  GI50: > 100 µM (inactive)
BT-549
  GI50: > 100 µM (inactive)
CCRF-CEM
  GI50: > 100 µM (inactive)
M14
  GI50: > 100 µM (inactive)
SF-295
  GI50: > 100 µM (inactive)
HT-29
  GI50: > 100 µM (inactive)
U-251
  GI50: > 100 µM (inactive)
DU-145
  GI50: > 100 µM (inactive)
UACC-62
  GI50: > 100 µM (inactive)
CAKI-1
  GI50: > 100 µM (inactive)
